Where two headings read alike, the source gives them in different places. A value given as a limit tells only on which side of the number the result lay.

The target of series [1] is T1, IRAK4 (Homo sapiens, UniProt Q9NWZ3).
T1 construct: 293Tcells expressing HiBiT-tagged IRAK4 were then added into 384-well plates
T1 sequence (Q9NWZ3 1-460): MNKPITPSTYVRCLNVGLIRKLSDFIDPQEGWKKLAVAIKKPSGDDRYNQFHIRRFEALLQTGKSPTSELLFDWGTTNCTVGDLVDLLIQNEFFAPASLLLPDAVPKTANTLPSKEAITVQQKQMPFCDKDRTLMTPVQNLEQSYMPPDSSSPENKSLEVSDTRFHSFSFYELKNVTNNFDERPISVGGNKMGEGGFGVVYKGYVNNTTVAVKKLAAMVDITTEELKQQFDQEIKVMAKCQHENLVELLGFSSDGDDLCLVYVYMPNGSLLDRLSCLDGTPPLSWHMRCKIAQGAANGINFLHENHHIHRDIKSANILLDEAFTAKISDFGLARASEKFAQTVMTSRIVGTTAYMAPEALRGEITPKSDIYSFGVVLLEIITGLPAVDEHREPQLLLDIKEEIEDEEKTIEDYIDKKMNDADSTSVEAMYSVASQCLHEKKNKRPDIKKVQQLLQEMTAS
As to the kind of experiment: IRAK4 Degradation Assay, HiBiT Method. It counts as cell-based. As to conditions: 293T cells expressing HiBiT-tagged IRAK4, 6 hours. In short, it runs like this: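 Luminescent read-out with Nano-Glo HiBiT lytic reagent after 6 h compound exposure at 37 °C. Cells were HiBiT-IRAK4 knock-in 293T (C-terminal tag), 10,000 per well. Compounds ran as 11-point half-log dilutions from […] highest dose, duplicate wells; DMSO served as negative control.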

A short description of series [2]: Pharmacokinetics in Male Cynomolgus Monkeys. It counts as in vivo. The settings on record: cynomolgus monkey, plasma; for Vd: read-out: Vdss. The method, then: Assay 5. Pharmacokinetics in Male Cynomolgus Monkeys
The pharmacokinetic (PK) profile in plasma of two compounds of the present invention was determined in male cynomolgus monkeys following single dose IV (5 mg/kg) and PO (10 mg/kg) administration. This study was performed under non-GLP conditions, and unless otherwise stated, all analytical reagents were standard laboratory reagent grade. The study was conducted in accordance with IACUC guidelines in compliance with the Animal Welfare Act, the Guide for the Care and Use of Laboratory Animals.
Male cynomolgus monkeys, non-naïve, are acceptable species to support PK studies for compounds intended for use in humans. The animals were supplied by Hainan Jingang Laboratory Animal Co. Ltd (Nayangxintan Fucheng Town, Qiongshan District, Haikou Hainan Province, P.R. China) or another qualified source. During in-life, the animals were individually housed in stainless-steel mesh cages that are in accordance with the National Research Council “Guide for the Care and Use of Laboratory Animals”. Animals were fed twice daily with approximately 120 g of certified monkey diet. These amounts were adjusted as necessary based on food consumption of the group or an individual body weight changes of the group or an individual and/or changes in the certified diet. In addition, animals received fruit daily as nutritional enrichment and reverse osmosis (RO) water was available to all animals, ad libitum. RO water was analyzed every three months and every batch of feed was analyzed before using. Feed and water analyses records were maintained in the facility records. The room(s) were controlled and monitored for relative humidity range of 40-70% (any excursion from this range for more than 3 hours was documented as a deviation) and temperature range of 18-26° C. (any excursion from this range was documented as a deviation) with 10 to 20 air changes/hour. The room was on a 12-hour light/dark cycle except when interruptions were necessitated by study activities. Normal healthy animals weighing >2 kg and age ≥2 years old were selected for studies. The monkeys were identified by a unique skin tattoo on chest.
2-[4-[[4-[1-(2,6-dioxo-3-piperidyl)-3-methyl-2-oxo-benzimidazol-5-yl]-1-piperidyl]methyl]cyclohexyl]-7-isopropoxy-N-pyrazolo[1,5-a]pyrimidin-3-yl-imidazo[1,2-a]pyridine-6-carboxamide, as described in Example 48 (“Compound 48”), and 2-((1R,4S)-4-((4-(1-(2,6-dioxopiperidin-3-yl)-3-methyl-2-oxo-2,3-dihydro-1H-benzo[d]imidazol-5-yl)piperidin-1-yl)methyl)cyclohexyl)-N-(1-((1S,2R)-2-fluorocyclopropyl)-2-oxo-1,2-dihydropyridin-3-yl)-7-isopropoxyimidazo[1,2-a]pyridine-6-carboxamide, as described in Example 169 (“Compound 169”), were each formulated by dissolving the compound in polyethylene glycol (PEG400) (10%) with stirring, followed by the slow addition of 11.11% 2-Hydroxypropyl-beta-cyclodextrin (HPβCD) (90%) in water. Vehicle dose was PEG400 (10%) and 11.11% HP-β-CD (90%) in water. Formulations and vehicle were freshly prepared on of the day of dosing and stored at room temperature until used.
All animals were weighed prior to drug administration. The animals were divided into intravenous (IV) group and per os (PO) group for each compound tested, with 3 animals in each group. The vehicle dosing group included IV and PO groups, making a total of 6 groups of 3 animals each, for 18 animals total. The IV dose was administered by intravenous bolus injection into the cephalic or saphenous vein. The vein used for the dosing was not used for blood sample collection for the first 4 hours post dose. The PO dose was administered by nasogastric tube. The nasogastric PO doses were flushed using 3 mL of vehicle (approximately 3 times volume of nasogastric tube). […] The dosing volume was 2.5 mL/kg for the IV groups and 5 mL/kg for the PO groups. The dosing concentration was 2 mg/mL for both IV and PO groups. Feeding conditions were overnight fasting for PO group but not for IV group. […]

Consider `CC(C)Oc1cc2nc([C@H]3CC[C@H](CN4CCC(c5ccc6c(c5)n(C)c(=O)n6C5CCC(=O)NC5=O)CC4)CC3)cn2cc1C(=O)Nc1cccn([C@H]2C[C@H]2F)c1=O` (stereo partly drawn) [Compound 169, 2-((1R,4S)-4-((4-(1-(2,6-dioxopiperidin-3-yl)-3-methyl-2-oxo-2,3-dihydro-1H-benzo[d]imidazol-5-yl)piperidin-1-yl)methyl)cyclohexyl)-N-(1-((1S,2R)-2-fluorocyclopropyl)-2-oxo-1,2-dihydropyridin-3-yl)-7-isopropoxyimidazo[1,2-a]pyridine-6-carboxamide], for which the DC50 (in general, the concentration giving 50% degradation) in series [1] was less than 10 nM. Moreover, in series [2] (5 mg/kg IV, mean (Table 11)), the AUC(0-t) – broadly, the area under the concentration-time curve up to a stated or last time point – is 4680 ng·h/mL; the C0 came out at 10300 ng/mL; the clearance – broadly, the rate of elimination divided by the concentration – was 17 mL/min/kg; the half-life (commonly the time needed for the level to fall by half in the phase considered) is 44.3 h. Also, the Vd in series [2] (5 mg/kg IV, mean (Table 11)) was found to be 32.6 L/kg. Also, in series [2] (10 mg/kg PO, mean (Table 12)), the AUC(0-t) turned out to be 1020 ng·h/mL; the Cmax (as a rule, the maximum level reached in the sampled fluid or tissue) stood at 101 ng/mL; the bioavailability (in general, the share of a dose that reaches the circulation, judged against a reference dose that is usually intravenous) was 10.8%.
As to `CC(C)Oc1cc2nc([C@H]3CC[C@H](CN4CCC(c5ccc6c(c5)n(C)c(=O)n6C5CCC(=O)NC5=O)CC4)CC3)cn2cc1C(=O)Nc1cnn2cccnc12` (stereo partly drawn) [Compound 48, 2-[4-[[4-[1-(2,6-dioxo-3-piperidyl)-3-methyl-2-oxo-benzimidazol-5-yl]-1-piperidyl]methyl]cyclohexyl]-7-isopropoxy-N-pyrazolo[1,5-a]pyrimidin-3-yl-imidazo[1,2-a]pyridine-6-carboxamide], in series [1], the half-maximal degradation concentration (DC50) was less than 10 nM. In series [2] (5 mg/kg IV, mean), this compound gave an AUC(0-t) of 1740 ng·h/mL, a C0 of 5970 ng/mL, a clearance of 48.6 mL/min/kg and a half-life of 44.2 h. Moreover, the Vd in series [2] (5 mg/kg IV, mean) turned out to be 70.3 L/kg. In series [2] (10 mg/kg PO, mean), this compound yielded an AUC(0-t) of 84.3 ng·h/mL, a Cmax of 18.3 ng/mL and a bioavailability of 2.42%.
